Reference: ChEMBL document CHEMBL1201862, “PubChem BioAssay data set” (2004)
Calls of active or inactive are those of the source.

Columns and labels:
[1] = molecular target: T1, Voltage-gated inwardly rectifying potassium channel KCNH2 (Homo sapiens, UniProt Q12809); settings: Potency;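 further: confirmatory quantitative high-throughput screen measuring inhibition of hERG channel activity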
[2] = molecular target: Luciferin 4-monooxygenase (Photinus pyralis, UniProt P08659); assay: inhibition of purified Photinus pyralis luciferase – biochemical, luminescence, dose response (AID 1891)
[3] = Luminescence Cell-Based Dose Confirmation HTS to Identify Inhibitors of Platelet Dense Granule Release. [Related pubchem assays: 1663 (Primary HTS), 1678 (Summary of Project)]; format: functional
Cytochrome P450 2C19 = Cytochrome P450 2C19 (Homo sapiens, UniProt P33261); assay: Cytochrome panel assay with activity outcomes. Panel member name: p450-cyp2c19 Compounds with AC50 equal or less than 10 uM are considered active; format: functional; settings: read-out: AC50
Cytochrome P450 2D6 = Cytochrome P450 2D6 (Homo sapiens, UniProt P10635);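 further: CYP2D6 member of a cytochrome P450 panel assay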
fMet-Leu-Phe receptor = fMet-Leu-Phe receptor (Homo sapiens, UniProt P21462); assay: formyl peptide receptor binders – dose response (AID 519); format: functional
[4] = molecular target: T2, Kappa-type opioid receptor (Homo sapiens, UniProt P41145); format: functional
[5] = molecular target: T3, Delta-type opioid receptor (Homo sapiens, UniProt P41143); assay: HTS Image-Based Screen for Agonists of the DOR Receptor. [Related pubchem assays (depositor defined):AID1777, AID1786, AID2133]; format: functional
Vero = assay: cells; format: functional; settings: Chlorocebus sabaeus
[6] = molecular target: T2, Kappa-type opioid receptor; format: functional; remark: listed apart in the source
[7] = test system: Streptococcus sp. 'group A'; assay: Streptococcus pyogenes SK(-)GAS viability under kanamycin – luminescence, BacTiterGlo, confirmation, counter-screen for streptokinase expression inhibitor project, dose response (AID 1900); format: functional, organism-based
[8] = molecular target: T4, Heat shock factor protein 1 (Mus musculus, UniProt P38532); assay: enhancement of HSF1-driven luciferase signal – cell-based, NIH3T3, luminescence, dose retest, confirmation (AID 435004); format: functional;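 further: stress induced by proteasome inhibitor MG132 added 30 min after compound; luciferase reporter driven by HSF1 response element in NIH3T3 cells; actives raise luminescence as potentiators of the MG132 stress response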
T4 sequence (P38532 whole entry): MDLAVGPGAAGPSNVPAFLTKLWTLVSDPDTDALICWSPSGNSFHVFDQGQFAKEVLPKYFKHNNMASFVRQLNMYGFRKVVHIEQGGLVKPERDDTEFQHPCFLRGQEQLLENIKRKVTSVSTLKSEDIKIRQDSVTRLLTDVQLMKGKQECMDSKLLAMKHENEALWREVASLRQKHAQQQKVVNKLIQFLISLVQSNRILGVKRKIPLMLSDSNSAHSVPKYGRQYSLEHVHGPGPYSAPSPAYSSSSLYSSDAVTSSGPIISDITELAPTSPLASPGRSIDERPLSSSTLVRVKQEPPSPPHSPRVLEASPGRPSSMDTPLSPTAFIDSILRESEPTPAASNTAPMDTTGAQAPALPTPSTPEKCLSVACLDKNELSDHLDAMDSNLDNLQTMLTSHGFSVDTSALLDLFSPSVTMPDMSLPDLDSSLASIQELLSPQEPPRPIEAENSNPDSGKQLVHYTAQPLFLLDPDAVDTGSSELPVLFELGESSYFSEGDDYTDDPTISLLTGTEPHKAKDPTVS

[9] = molecular target: Induced myeloid leukemia cell differentiation protein Mcl-1 (Homo sapiens, UniProt Q07820); format: functional
[10] = loss of viability in HepG2 cells – cell-based, CellTiter-Glo, cherry-picked, cytotoxicity control for Shn3 inhibitor project, dose response (AID 624134); format: functional
[11] = molecular target: T1, Voltage-gated inwardly rectifying potassium channel KCNH2; assay: concentration-dependent hERG rescue from blockers – cell-based, thallium flux, dose response (AID 2121); format: ADME
Streptococcus = assay: GAS UMAA2166 growth inhibition – luminescence, BacTiterGlo, counter-screen for streptokinase expression inhibitor project, dose response (AID 1915); format: functional, organism-based; settings: read-out: EC50;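 further: potency for reduction of bacterial viability or growth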
[12] = reduction of Shn3 3'UTR-driven luciferase in osteoblasts – cell-based, Clone20 osteoblasts, firefly luciferase, cherry-picked, dose response (AID 624132); format: functional;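 further: firefly luciferase luminescence from reporter carrying the Shn3 3'UTR in osteoblasts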
Beta-galactosidase = Beta-galactosidase (Escherichia coli, UniProt Q8VNN2); format: functional
[13] = non-specific 3'UTR reporter inhibition in Clone20-Shn3RL – cell-based, Renilla luciferase, cherry-picked, counter-screen for Shn3 inhibitor project, dose response (AID 624133); format: functional
[14] = molecular target: T3, Delta-type opioid receptor; assay: HTS Image-Based Screen for Antagonists of the DOR Receptor. [Related pubchem assays (depositor defined):AID1777, AID1785, AID1786, AID2133]; format: functional
[15] = molecular target: E3 ubiquitin-protein ligase Mdm2 (Homo sapiens, UniProt Q00987); assay: MDM2-luc reporter signal enhancers, multi-concentration potency testing, MDM2 ubiquitin-protein ligase inhibitor program, whole-cell format, luminescence detection, 384-well microplate (AID 1394); format: functional;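 further: MDM2 E3 inhibitors raise luminescence so EC50 is for signal enhancement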
Mu-type opioid receptor = Mu-type opioid receptor (Homo sapiens, UniProt P35372); assay: HTS Image-Based Screen for Agonists of the MOR Receptor. [Related pubchem assays (depositor defined):AID1777, AID1785, AID1786, AID2133]; format: functional;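 further: imaging of beta-arrestin GFP recruitment into spots after receptor activation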
[16] = Luminescence Cell-Based Dose Retest to Confirm Inhibitors of Cancer Stem Cells. [Related pubchem assays (depositor defined):AID2717, AID2721]; format: functional; settings: Homo sapiens
[17] = viability loss of HMLE_sh_eGFP cells – cell-based, luminescence, counter-screen for HMLE_sh_ECad selective toxicity project, dose response (AID 463074); format: functional, Homo sapiens;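 further: HMLE human mammary epithelial cells expressing control shRNA against eGFP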
[18] = molecular target: Dual specificity protein kinase CLK1 (Homo sapiens, UniProt P49759); assay: inhibition of human CLK1 activity – biochemical, cherry-picked samples, selectivity assay for Dyrk1A inhibitor project, dose response (AID 588811)
Phosphomannomutase 2 = Phosphomannomutase 2 (Homo sapiens, UniProt O15305); assay: Counter screen SAR assay for PMM2 inhibitors via a fluorescence intensity assay. [Related pubchem assays (depositor defined):AID1545, AID1574]
[19] = molecular target: T5, Mannose-6-phosphate isomerase (Homo sapiens, UniProt P34949); assay: phosphomannose isomerase inhibition – biochemical, fluorescence intensity, confirmation (AID 1535)
T5 sequence (P34949 whole entry): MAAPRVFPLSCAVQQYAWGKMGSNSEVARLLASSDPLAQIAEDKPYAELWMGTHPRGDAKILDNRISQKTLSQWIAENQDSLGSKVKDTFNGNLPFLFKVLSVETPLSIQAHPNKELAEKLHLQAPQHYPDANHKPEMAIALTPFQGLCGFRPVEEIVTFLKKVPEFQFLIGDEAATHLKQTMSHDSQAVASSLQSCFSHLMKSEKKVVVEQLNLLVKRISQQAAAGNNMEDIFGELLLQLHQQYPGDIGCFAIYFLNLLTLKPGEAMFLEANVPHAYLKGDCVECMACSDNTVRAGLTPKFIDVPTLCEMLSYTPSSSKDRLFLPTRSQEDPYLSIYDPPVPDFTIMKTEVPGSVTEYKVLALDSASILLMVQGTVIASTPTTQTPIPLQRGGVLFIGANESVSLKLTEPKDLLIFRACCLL

[20] = molecular target: Potassium voltage-gated channel subfamily KQT member 2 (Rattus norvegicus, UniProt O88943); assay: rat KCNQ2 current potentiators – automated patch clamp, KCNQ2-CHO cells, SAR follow-up (AID 493113); format: functional
[21] = molecular target: Dual specificity protein phosphatase 3 (Homo sapiens, UniProt P51452); assay: SAR VHR1 Fluorescent Assay for In Vitro dose response studies Set 3. [Related pubchem assays (depositor defined):AID1654, AID1661, AID1878]; format: functional
INS1 = assay: beta-cell survival under cytokine stress – INS-1E, ATP luminescence, dry powder, dose response (AID 488844); format: functional, cell-based; settings: Rattus norvegicus
[22] = molecular target: T6, Short transient receptor potential channel 4 (Mus musculus, UniProt Q9QUQ5); assay: SAR Analysis for the identification of selective inhibits of the transient receptor potential cation channel C4 (TRPC4): Automated Electrophysiology. [Related pubchem assays (depositor defined):AID2256]; format: functional
T6 sequence (Q9QUQ5 whole entry): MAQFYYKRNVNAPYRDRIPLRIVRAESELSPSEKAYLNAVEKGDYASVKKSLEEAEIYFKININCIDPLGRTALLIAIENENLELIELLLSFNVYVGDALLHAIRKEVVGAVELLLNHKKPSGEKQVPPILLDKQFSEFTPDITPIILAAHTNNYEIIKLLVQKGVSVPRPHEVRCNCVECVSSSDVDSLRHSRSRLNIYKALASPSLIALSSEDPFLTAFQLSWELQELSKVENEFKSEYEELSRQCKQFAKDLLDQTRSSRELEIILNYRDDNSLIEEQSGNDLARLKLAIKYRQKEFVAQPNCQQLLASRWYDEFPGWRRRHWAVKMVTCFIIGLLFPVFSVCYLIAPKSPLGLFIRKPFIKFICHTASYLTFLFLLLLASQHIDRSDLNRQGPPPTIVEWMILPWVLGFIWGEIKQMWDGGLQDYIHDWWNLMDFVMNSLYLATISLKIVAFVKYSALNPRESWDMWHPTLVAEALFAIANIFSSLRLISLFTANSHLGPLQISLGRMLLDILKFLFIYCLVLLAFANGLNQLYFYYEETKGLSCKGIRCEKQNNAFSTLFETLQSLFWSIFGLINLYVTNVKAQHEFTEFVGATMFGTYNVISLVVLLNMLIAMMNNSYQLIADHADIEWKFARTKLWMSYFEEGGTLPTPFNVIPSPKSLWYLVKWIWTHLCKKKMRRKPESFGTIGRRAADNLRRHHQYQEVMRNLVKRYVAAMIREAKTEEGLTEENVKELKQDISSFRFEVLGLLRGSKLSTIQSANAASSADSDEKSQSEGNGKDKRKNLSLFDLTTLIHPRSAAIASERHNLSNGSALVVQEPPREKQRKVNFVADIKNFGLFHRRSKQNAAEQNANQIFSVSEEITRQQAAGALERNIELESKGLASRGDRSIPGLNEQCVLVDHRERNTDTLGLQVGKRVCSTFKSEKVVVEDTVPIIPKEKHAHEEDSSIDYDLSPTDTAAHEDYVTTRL

[23] = molecular target: T6, Short transient receptor potential channel 4; assay: mouse TRPC4 block via Gq-coupled stimulation – cell-based, acetylcholine stimulus, HEK293 TRPC4, Fluo-4, SAR follow-up (AID 492996); format: functional
[24] = molecular target: T6, Short transient receptor potential channel 4; assay: potency of mouse TRPC4 calcium flux blockers – cell-based, HEK293 TRPC4/mu-opioid, DAMGO stimulus, Fluo-4, dose response (AID 492994); format: functional
[25] = molecular target: Short transient receptor potential channel 6 (Mus musculus, UniProt Q61143); assay: mouse TRPC6 channel blockers, concentration series – HEK293 cells, membrane potential dye, IC50, selectivity assay for selective TRPC4 inhibitor project, dose response (AID 492987); format: functional, cell-based

T3 sequence (P41143 whole entry): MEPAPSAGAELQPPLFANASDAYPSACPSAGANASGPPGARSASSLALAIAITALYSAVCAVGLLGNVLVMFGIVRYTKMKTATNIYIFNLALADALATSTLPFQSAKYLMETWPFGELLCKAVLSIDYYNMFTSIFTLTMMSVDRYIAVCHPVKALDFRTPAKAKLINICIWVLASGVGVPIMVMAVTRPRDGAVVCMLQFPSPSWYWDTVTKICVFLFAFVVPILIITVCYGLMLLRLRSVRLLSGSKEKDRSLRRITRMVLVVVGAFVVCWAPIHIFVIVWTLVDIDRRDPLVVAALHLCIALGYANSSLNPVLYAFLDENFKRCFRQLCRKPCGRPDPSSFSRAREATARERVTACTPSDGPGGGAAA
T2 sequence (P41145 whole entry): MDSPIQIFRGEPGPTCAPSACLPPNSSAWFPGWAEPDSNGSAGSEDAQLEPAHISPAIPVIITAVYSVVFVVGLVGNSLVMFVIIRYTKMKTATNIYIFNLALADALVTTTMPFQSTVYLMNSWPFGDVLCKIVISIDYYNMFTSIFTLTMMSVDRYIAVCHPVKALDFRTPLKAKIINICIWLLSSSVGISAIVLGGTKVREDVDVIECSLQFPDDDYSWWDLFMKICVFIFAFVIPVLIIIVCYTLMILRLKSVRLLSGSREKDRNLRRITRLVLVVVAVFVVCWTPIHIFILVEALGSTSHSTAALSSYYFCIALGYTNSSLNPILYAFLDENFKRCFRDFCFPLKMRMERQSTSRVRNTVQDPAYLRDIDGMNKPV
T1 sequence (Q12809 whole entry): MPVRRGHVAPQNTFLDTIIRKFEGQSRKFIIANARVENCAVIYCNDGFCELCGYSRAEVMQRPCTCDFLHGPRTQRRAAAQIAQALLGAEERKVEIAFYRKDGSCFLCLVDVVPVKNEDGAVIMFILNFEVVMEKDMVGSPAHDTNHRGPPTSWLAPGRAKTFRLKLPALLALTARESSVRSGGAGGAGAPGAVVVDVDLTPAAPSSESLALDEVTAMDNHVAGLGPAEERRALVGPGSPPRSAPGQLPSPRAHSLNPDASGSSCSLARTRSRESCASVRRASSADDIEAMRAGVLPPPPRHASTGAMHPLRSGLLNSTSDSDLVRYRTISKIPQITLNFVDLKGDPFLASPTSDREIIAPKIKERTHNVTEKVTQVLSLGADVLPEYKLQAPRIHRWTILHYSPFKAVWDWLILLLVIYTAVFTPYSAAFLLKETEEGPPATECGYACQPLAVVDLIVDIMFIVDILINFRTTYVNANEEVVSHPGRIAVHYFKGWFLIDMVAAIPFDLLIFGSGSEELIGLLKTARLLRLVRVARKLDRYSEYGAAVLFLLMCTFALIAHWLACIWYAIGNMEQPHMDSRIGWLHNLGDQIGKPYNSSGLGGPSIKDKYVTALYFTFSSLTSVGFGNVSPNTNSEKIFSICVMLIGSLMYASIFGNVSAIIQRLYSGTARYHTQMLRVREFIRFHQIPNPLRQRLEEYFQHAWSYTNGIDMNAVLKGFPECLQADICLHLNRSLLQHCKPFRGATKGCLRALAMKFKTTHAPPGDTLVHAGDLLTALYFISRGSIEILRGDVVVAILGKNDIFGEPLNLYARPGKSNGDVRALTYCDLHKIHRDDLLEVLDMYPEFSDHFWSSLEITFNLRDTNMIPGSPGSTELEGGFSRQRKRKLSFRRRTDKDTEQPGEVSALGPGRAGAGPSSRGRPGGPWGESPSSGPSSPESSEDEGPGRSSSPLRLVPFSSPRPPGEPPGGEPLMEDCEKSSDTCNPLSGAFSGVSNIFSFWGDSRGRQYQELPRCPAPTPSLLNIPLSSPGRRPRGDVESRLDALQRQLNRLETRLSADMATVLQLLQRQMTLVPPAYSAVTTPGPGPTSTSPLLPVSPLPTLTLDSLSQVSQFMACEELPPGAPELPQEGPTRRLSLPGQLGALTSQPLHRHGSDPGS
Chain of Induced myeloid leukemia cell differentiation protein Mcl-1 (Q07820 whole entry): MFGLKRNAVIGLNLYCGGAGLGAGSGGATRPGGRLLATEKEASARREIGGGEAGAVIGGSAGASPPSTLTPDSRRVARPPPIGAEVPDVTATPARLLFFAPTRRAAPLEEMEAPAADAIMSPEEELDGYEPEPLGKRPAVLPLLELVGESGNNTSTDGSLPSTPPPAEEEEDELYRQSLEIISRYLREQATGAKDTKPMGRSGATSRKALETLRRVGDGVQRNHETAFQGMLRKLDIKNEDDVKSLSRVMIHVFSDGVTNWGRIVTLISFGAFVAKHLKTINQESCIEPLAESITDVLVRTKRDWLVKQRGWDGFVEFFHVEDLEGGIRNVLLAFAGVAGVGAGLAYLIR
Chain of Cytochrome P450 2D6 (P10635 whole entry): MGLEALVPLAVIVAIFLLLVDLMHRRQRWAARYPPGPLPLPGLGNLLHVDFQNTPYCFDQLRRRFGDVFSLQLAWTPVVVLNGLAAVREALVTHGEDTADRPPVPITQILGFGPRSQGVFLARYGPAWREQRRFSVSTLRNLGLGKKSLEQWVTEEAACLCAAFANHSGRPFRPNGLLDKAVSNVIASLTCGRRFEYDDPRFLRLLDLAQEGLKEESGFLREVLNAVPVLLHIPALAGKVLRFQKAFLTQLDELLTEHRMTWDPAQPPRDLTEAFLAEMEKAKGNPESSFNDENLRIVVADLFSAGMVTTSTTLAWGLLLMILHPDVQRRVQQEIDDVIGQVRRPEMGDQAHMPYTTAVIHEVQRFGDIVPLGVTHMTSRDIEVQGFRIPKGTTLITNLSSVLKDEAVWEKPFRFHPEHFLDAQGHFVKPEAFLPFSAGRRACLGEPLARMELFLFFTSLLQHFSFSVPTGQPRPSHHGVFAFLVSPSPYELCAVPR
Chain of Dual specificity protein kinase CLK1 (P49759 whole entry): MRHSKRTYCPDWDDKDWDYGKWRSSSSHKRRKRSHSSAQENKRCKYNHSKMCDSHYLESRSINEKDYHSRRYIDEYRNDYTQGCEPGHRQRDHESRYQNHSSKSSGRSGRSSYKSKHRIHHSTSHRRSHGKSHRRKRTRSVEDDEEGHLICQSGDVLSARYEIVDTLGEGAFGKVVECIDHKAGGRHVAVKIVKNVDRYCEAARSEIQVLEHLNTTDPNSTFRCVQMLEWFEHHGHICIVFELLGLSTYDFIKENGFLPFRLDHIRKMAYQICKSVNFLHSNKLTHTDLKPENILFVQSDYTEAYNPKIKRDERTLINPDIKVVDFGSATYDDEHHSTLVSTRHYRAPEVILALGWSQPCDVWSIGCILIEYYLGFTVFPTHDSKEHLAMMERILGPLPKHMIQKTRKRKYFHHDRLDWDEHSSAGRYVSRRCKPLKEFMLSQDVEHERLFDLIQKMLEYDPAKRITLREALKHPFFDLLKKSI
Chain of Cytochrome P450 2C19 (P33261 whole entry): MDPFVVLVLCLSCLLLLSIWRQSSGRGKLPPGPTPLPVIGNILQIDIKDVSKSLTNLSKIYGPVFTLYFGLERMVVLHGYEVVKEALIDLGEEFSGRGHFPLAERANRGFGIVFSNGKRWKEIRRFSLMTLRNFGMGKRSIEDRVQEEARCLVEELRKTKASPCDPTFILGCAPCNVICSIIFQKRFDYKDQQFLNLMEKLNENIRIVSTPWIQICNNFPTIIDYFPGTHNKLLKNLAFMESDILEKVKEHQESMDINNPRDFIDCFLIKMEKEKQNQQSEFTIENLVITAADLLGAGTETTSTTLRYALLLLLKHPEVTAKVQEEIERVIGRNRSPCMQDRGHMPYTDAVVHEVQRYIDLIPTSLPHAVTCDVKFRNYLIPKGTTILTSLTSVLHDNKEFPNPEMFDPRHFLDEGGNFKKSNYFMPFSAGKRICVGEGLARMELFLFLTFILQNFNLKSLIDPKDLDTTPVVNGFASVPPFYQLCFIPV
Chain of Dual specificity protein phosphatase 3 (P51452 whole entry): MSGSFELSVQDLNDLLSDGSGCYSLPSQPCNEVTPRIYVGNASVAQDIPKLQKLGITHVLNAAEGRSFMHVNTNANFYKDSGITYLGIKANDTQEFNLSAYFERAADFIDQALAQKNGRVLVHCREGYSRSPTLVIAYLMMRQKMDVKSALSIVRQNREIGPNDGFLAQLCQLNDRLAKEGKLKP
Chain of Beta-galactosidase (Q8VNN2 whole entry): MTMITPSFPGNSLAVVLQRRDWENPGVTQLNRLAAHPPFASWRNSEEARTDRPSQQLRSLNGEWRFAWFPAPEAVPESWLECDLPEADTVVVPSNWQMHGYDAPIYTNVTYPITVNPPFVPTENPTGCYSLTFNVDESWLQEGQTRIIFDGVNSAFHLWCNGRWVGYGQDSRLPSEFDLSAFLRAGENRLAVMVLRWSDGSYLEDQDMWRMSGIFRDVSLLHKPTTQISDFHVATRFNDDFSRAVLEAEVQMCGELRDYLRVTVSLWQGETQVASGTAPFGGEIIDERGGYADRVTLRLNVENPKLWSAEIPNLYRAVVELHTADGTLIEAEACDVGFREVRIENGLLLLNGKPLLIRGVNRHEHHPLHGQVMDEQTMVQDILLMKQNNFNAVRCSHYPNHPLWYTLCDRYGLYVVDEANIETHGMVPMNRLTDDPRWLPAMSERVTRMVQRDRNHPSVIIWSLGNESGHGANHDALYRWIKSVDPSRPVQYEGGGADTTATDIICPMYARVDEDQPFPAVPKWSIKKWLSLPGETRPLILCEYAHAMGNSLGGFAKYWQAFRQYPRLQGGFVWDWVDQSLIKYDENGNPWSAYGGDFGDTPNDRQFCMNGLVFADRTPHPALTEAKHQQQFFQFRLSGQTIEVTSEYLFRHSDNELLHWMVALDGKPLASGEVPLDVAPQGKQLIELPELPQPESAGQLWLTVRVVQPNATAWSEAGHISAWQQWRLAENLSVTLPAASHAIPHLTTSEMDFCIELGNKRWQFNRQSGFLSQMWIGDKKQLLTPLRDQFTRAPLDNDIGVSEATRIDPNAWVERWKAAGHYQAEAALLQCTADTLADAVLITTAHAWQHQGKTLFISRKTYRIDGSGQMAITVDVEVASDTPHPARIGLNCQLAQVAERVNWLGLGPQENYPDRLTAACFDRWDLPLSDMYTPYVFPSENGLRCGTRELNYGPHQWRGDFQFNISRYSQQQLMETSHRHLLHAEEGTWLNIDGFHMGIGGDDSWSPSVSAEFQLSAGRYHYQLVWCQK

O=C(Cc1ccc(Cl)c(Cl)c1)N1CCCCC1CN1CCCC1 (centres undefined)
AC50 [1]: 25.1 µM (inconclusive)

Cc1ccc(C2C(C(=O)c3sc(C)nc3C)=C(O)C(=O)N2CCN2CCOCC2)o1 (centres undefined)
EC50 [2]: > 112 µM (not active)
EC50 [3]: > 112 µM (not active)
AC50 (Cytochrome P450 2C19): 0.00562 µM (inconclusive)
AC50 (Cytochrome P450 2D6): inconclusive
Ki (fMet-Leu-Phe receptor): > 66.7 µM (inactive)

N=C1S/C(=C\c2ccc(-c3cccc(Cl)c3)o2)C(=O)N1c1nccs1
IC50 [4]: 5.72 µM (active)
EC50 [5]: > 32 µM (inactive)
CC50 (Vero): 4.5 µM (active)
IC50 [6]: > 32 µM
EC50 [7]: < 0.06 µM (active)
EC50 [8]: 5.39 µM (active)
IC50 [9]: 0.745 µM (active)
AC50 [10]: 13.7 µM (active)
EC50 [11]: 0.42 µM (active)
EC50 (Streptococcus): 0.228 µM (active)
AC50 [12]: 2.82 µM (active)
EC50 (Beta-galactosidase): > 31.5 µM (inactive)
AC50 [13]: 6.17 µM (active)
IC50 [14]: > 32 µM (inactive)
EC50 [15]: 0.01 µM (not active)
EC50 (Mu-type opioid receptor): > 32 µM (inactive)

Cc1ccc(OCC(=O)NNC(=S)NC(=O)c2cccs2)c(C)c1
AC50 [16]: 9.13 µM (active)
AC50 [17]: 37.8 µM (active)

CN(Cc1cccs1)c1ncnc2ccc(-c3ccc4c(c3)OCO4)cc12
AC50 [18]: < 0.00195 µM (active)

Clc1nss/c1=N\c1ccccc1Br
IC50 (Phosphomannomutase 2): 57.3 µM (active)
IC50 [19]: 11.9 µM (active)

O=C(Nc1ccc(Cl)cc1Cl)C1CC2CCC1C2 (centres undefined)
EC50 [20]: 1.52 µM (active)

CC(C)(C)c1ccc(C(=O)NCc2nnc(SCC(=O)Nc3nc4ccccc4s3)n2-c2cccc(Cl)c2)cc1
IC50 [21]: > 66 µM (inactive)

COc1ccc(S(=O)(=O)N(C)C[C@@H]2Oc3c(NS(=O)(=O)c4ccc(Cl)cc4)cccc3C(=O)N([C@@H](C)CO)C[C@H]2C)cc1
AC50 (INS1): > 260 µM (inactive)

Cc1cc(N2CCC[C@@H]2C)nc2ccccc12
IC50 [22]: 4.26 µM (active)
IC50 [23]: 17.1 µM (active)
IC50 [24]: 2.5 µM (active)
IC50 [25]: 11.8 µM (active)
